{"source": "BindingDB's records for doi:10.7270/Q21N7ZQ4", "about": "(Johns Hopkins Ion Channel Center, 2012)", "molecular_target": "T1, High affinity choline transporter 1 (Homo sapiens, UniProt Q9GZV3)", "T1 sequence (Q9GZV3 whole entry)": "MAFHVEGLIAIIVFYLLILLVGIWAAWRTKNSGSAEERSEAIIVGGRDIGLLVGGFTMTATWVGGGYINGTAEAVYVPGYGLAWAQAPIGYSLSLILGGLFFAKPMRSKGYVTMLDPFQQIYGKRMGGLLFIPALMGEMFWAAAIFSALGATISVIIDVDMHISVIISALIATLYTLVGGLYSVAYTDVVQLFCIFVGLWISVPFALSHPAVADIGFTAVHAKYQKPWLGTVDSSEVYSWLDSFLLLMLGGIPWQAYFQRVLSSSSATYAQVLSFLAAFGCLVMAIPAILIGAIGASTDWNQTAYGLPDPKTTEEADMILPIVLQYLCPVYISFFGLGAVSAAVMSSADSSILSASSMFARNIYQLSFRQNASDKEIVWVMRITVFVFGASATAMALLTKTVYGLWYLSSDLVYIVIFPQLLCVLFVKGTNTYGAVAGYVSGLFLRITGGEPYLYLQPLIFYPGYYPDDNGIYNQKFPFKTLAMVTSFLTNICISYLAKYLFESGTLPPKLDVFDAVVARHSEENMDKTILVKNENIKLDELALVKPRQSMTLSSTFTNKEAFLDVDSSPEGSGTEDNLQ", "experiment": "CHT activators, dose response, cell-based, 10-point CRC, membrane potential dye (AID 602376)"}
{"smiles": "COc1cc(C2c3ccc(N)cc3OC(=N)C2C#N)cc(OC)c1OC", "note": "(configuration not stated) [2,7-bis(azanyl)-4-(3,4,5-trimethoxyphenyl)-4H-chromene-3-carbonitrile]", "values": [{"measurement": "EC50", "result": 13.5, "unit": "µM"}]}
{"smiles": "CCOC(=O)c1ccc(-[n+]2c(-c3ccccc3)cc(-c3ccccc3)cc2-c2ccccc2)cc1", "note": "[MLS001242871]", "values": [{"measurement": "EC50", "result": 14.1, "unit": "µM"}]}
